Source: ChEMBL document CHEMBL1828570, “Modeling the molecular basis for α4β1 integrin antagonism” (Bioorg Med Chem, 2011)

The compounds below were run against Integrin alpha-4/beta-1 (Homo sapiens, UniProt P05556+P13612) (assay: Antagonist activity at alpha4beta1 integrin).
Sequence of Integrin alpha-4/beta-1 (P05556 whole entry): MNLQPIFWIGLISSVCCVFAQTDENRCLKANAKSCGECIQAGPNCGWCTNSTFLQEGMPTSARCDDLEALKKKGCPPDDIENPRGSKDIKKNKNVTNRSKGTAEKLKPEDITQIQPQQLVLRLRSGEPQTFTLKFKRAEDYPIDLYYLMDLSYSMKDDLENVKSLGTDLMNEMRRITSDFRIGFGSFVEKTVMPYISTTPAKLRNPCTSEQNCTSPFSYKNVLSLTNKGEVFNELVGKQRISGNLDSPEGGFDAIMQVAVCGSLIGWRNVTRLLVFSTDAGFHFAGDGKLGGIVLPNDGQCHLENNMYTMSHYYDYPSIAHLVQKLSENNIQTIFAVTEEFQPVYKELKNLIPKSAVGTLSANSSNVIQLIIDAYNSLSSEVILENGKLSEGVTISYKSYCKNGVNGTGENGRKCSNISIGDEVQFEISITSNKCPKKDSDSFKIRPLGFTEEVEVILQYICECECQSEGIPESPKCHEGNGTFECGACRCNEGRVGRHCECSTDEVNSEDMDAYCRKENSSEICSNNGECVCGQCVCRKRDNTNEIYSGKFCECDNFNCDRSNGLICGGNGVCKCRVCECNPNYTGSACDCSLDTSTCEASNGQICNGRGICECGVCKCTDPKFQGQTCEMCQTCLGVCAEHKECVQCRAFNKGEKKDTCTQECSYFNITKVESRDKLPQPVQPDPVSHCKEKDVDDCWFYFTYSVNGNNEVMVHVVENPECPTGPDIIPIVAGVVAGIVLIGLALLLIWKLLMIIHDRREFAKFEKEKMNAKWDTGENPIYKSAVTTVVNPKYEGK
Sequence of Integrin alpha-4/beta-1 (P13612 whole entry): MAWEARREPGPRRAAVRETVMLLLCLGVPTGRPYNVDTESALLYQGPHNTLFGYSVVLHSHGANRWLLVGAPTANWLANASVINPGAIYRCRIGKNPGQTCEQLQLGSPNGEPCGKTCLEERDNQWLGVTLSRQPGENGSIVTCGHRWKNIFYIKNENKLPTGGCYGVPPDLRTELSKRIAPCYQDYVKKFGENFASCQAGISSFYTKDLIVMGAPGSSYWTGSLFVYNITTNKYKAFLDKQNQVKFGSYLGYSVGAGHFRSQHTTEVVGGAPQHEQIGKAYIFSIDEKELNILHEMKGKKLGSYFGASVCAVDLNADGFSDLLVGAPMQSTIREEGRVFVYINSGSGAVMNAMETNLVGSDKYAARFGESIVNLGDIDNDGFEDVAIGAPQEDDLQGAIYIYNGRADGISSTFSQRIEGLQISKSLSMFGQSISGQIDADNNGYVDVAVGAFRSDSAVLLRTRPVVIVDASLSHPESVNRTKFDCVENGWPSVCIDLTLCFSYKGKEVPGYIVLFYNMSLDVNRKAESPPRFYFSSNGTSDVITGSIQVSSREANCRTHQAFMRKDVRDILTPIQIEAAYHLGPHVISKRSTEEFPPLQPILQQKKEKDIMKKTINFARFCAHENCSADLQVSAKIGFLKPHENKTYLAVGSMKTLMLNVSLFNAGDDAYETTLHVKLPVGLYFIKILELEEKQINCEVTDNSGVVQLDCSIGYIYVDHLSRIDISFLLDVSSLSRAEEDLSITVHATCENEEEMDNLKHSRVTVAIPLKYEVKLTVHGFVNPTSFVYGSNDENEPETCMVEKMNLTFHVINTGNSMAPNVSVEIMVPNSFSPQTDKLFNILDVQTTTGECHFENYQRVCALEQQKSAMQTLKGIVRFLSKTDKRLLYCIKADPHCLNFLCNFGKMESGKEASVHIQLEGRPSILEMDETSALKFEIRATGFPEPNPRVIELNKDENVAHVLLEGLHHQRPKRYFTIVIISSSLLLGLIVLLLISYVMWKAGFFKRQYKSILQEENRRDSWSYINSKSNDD
Type: functional
`CS(=O)(=O)CCCCC1(C(=O)N[C@H](Cc2ccc(NC(=O)c3c(Cl)cccc3Cl)cc2)C(=O)O)CCC1` was tested, and the IC50 was 6 nM. For `COCCCC[C@@]1(C(=O)N[C@H](Cc2ccc(-c3c(OC)cccc3OC)cc2)C(=O)O)CCCO1`, the IC50 was 1.27 nM. With `O=C(O)CC[C@H](NCS(=O)(=O)c1ccccc1)C(=O)N[C@@H](Cc1ccc(OCc2c(Cl)cccc2Cl)cc1)C(=O)O` the IC50 was 2 nM. With `COc1cccc(OC)c1-c1ccc(C[C@@H](NC(=O)[C@@]2(C)CCN2S(=O)(=O)c2cc(Cl)cc(Cl)c2)C(=O)O)cc1` the IC50 was 0.07 nM. For `CC(C)C(=O)Oc1cccc(OC(=O)C(C)C)c1-c1ccc(C[C@@H](NC(=O)[C@@]2(C)CCCN2S(=O)(=O)c2cc(Cl)cc(Cl)c2)C(=O)O)cc1`, the IC50 was 4.5 nM. In the case of `CCCNc1c(N[C@@H](Cc2ccc(OCc3c(Cl)cccc3Cl)cc2)C(=O)O)c(=O)c1=O`, the IC50 is reported as 67 nM. `COc1ccccc1-c1ccc(C[C@H](NC(=O)Cc2ccccc2Cl)C(=O)O)cc1` showed an IC50 of 36.8 nM. `O=C(Nc1ccc(C[C@H](NC(=O)[C@@H]2C3CCC(CC3)N2S(=O)(=O)c2ccccc2Cl)C(=O)O)cc1)c1cc(Cl)nc(Cl)c1` gave an IC50 of 105 nM. Compound `O=C(O)[C@@H](CSSCCNC(=O)C12CC3CC(CC(C3)C1)C2)NC12CC3CC(CC(C3)C1)C2` has an IC50 of 4100 nM. `COc1cccc(OC)c1-c1ccc(C[C@H](NC[C@@H]2CCCN2S(=O)(=O)c2cc(Cl)cc(Cl)c2)C(=O)O)cc1` was tested, and the IC50 was 140 nM.
